Data reported in PMC3927586, “Protein kinase C-delta inactivation inhibits the proliferation and survival of cancer stem cells in culture and in vivo” (BMC Cancer, 2014).

Legend:
PCSC cells = test: Cytotoxicity (LDH release) in pancreatic cancer stem cells; type: cell-based, human
Procedure: (§1) LDH release was assessed by spectrophotometrically measuring the oxidation of NADH in both the cells and media. Cells were seeded in 24-well plates, and exposed to PKCδ inhibitors or vehicle. After different times of exposure, cytotoxicity was quantified by a standard measurement of LDH release with the use of the LDH assay kit (Roche Molecular Biochemicals) according to the manufacturer’s protocol. Briefly, total culture medium was cleared by centrifugation. For assay of released LDH, supernatants were collected. To assess total LDH in cells, Triton X-100 was added to vehicle (control) wells to release intracellular LDH. LDH assay reagent was added to lysates or supernatants and incubated for up to 30 min at room temperature in dark, the reaction was stopped, and the absorbance was measured at 490 nm. The percentage of LDH release was then calculated as the LDH in the supernatants as a fraction of the total LDH.
Figure 2 Effects of PKCδ inhibitors on human cancer stem cells. (A) PCSC and PrCSC cells at 80% confluence were exposed to rottlerin. DMSO served as vehicle control (Vehicle). After 24 and 72 hr of exposure, cell mass was evaluated by MTT assay. Control values were normalized to 100%. p values for comparison between treatments reached significance at 24 hr of exposure (p≤0.01) for both cell types, and remained significant at 72 hr. (B) PCSC and PrCSC cells at 50% confluence were exposed to rottlerin. Cytotoxicity was evaluated by LDH-release assay. Total maximal LDH release was assigned the arbitrary value of 100% (Control). p values for comparison between effects of treatments on LDH release reached significance at 24 hr of exposure (p<0.01) for both cell types, and remained significant at 72 hr. (C) Effects of PKCδ inhibitor on tumor cell clonogenic capacity. PCSC were exposed to vehicle or rottlerin (10 μM) for 6, 18, 24, or 48 hr. Viable cells were enumerated and re-plated in media without inhibitor, and colony numbers were quantitated 15 days later. p values for comparison of treatment effects on clonogenic capacity reached significance (p=0.005) at 18 hr of exposure and remained significant for all subsequent exposure times. The insert is a photograph of stained colonies on plates. (D) Structures of staurosporine, rottlerin, second-generation (KAM1) and third-generation (BJE6-106) derivatives. (E) PCSC and PrCSC cells at 50% confluence were exposed to KAM1 at the indicated concentrations. DMSO served as vehicle control (Vehicle). Cytotoxicity was evaluated by LDH-release assay, as in panel B. p values for comparison between treatment effects on LDH release reached significance at 24 hr of exposure to 2.5 μM KAM1 for PCSC cells and at 10 μM for PrCSC (p≤0.01), and remained significant at 72 hr for all concentrations of KAM1. Error bars represent SEM.

[1] = Drug-like properties: hydrophobicity; type: physicochemical
[2] = test system: cells with aberrant Ras signaling; parameters: method as in PMID 24506253; conditions: cited from earlier work
[3] = test system: normal primary cells or cell lines; conditions: at the concentrations employed herein; cited from earlier work
[4] = test system: human breast cancer stem cell (BCSC) xenografts; test: Breast cancer stem cell xenograft model; type: in vivo, mice; conditions: rottlerin 5,000 μg/kg intraperitoneally, 15 days
Procedure: These studies were performed with the approval of the Institutional Animal Care and Use Committee of Boston University. Breast cancer stem cells (2 × 10^5) grown from a metastatic tumor were suspended in human breast cancer stem cell complete growth media (Celprogen, San Pedro, CA) and injected subcutaneous into the right flank of female J:NU mice (The Jackson Laboratory, ME) under anesthesia. After palpable tumors developed, the mice were divided into two groups of animals. The control group received daily intraperitoneal injections of vehicle (DMSO) while the treatment group received daily intraperitoneal injections of a PKCδ inhibitor (rottlerin 5,000 μg/kg) for 15 days. The length and width of tumors were measured with a vernier caliper and tumor volumes were calculated. Survival was calculated as the day tumors reached the maximum size allowed by the protocol (2 cm diameter).
Figure 6 Effects of PKCδ inhibitor on tumor growth and survival in a xenograft human breast cancer stem cell model. Breast cancer stem cell xenografts were established and animals were treated with vehicle or rottlerin for 15 days, as described in Methods. (A) Tumor volumes plotted over time, until tumors in all the control animals reached the maximum volume allowed by the protocol (approximately 15 days). […]

PrCSC cells [5] = test: Cell proliferation (MTT) of prostate cancer stem cells; type: cell-based, human; conditions: as early as 24 hr after exposure
Procedure: Cell proliferation was assessed using an MTT [3-(4,5-dimethylthiazol-2-yl)-2,5-diphenyltetrazolium bromide] assay (Roche, Mannheim, Germany). The number of viable cells growing in a single well on a 96-well microtiter plate was estimated by adding 10 μl of MTT solution (5 mg/ml in phosphate-buffered saline [PBS]). After 4 h of incubation at 37°C, the stain was diluted with 100 μl of dimethyl sulfoxide. The optical densities were quantified at a test wavelength of 570 nm and a reference wavelength of 690 nm on a multiwell spectrophotometer. In some assays, MTS was used as substrate (Promega, Madison, WI), and the absorbance of the product was monitored at 490 nm. Cell enumeration was carried out using a hemocytometer, and viable cells identified by trypan blue exclusion.
Figure 2 Effects of PKCδ inhibitors on human cancer stem cells. (A) PCSC and PrCSC cells at 80% confluence were exposed to rottlerin. DMSO served as vehicle control (Vehicle). After 24 and 72 hr of exposure, cell mass was evaluated by MTT assay. […] Cytotoxicity was evaluated by LDH-release assay. […] Viable cells were enumerated and re-plated in media without inhibitor, and colony numbers were quantitated 15 days later. p values for comparison of treatment effects on clonogenic capacity reached significance (p=0.005) at 18 hr of exposure and remained significant for all subsequent exposure times. […]

PrCSC cells [6] = test: Cytotoxicity (LDH release) in prostate cancer stem cells; type: cell-based, human; conditions: dose-dependent, 24 and 72 hr
Procedure: as §1
Figure 2 Effects of PKCδ inhibitors on human cancer stem cells. (A) PCSC and PrCSC cells at 80% confluence were exposed to rottlerin. DMSO served as vehicle control (Vehicle). After 24 and 72 hr of exposure, cell mass was evaluated by MTT assay. Control values were normalized to 100%. p values for comparison between treatments reached significance at 24 hr of exposure (p≤0.01) for both cell types, and remained significant at 72 hr. (B) PCSC and PrCSC cells at 50% confluence were exposed to rottlerin. Cytotoxicity was evaluated by LDH-release assay. […] Viable cells were enumerated and re-plated in media without inhibitor, and colony numbers were quantitated 15 days later. p values for comparison of treatment effects on clonogenic capacity reached significance (p=0.005) at 18 hr of exposure and remained significant for all subsequent exposure times. […] Cytotoxicity was evaluated by LDH-release assay, as in panel B. p values for comparison between treatment effects on LDH release reached significance at 24 hr of exposure to 2.5 μM KAM1 for PCSC cells and at 10 μM for PrCSC (p≤0.01), and remained significant at 72 hr for all concentrations of KAM1. […]

PCSC = test: Clonogenic assay with washout; type: cell-based, human; conditions: rottlerin 10 μM, colonies at 15 days
Procedure: 100,000 cells were seeded on 100 mm dishes with 10 ml media per dish. On day 4, cells were treated with a PKCδ inhibitor or vehicle control for either 6, 18, 24 or 48 hours. Cells were trypsinized; counted via the trypan blue exclusion method in order to determine the number of live cells in the sample, and 300 live cells were seeded in triplicate onto 6-well plates. Cells were monitored for appropriate colony size and re-fed every three to four days. At Day 15, cells were stained with ethidium bromide and counted using UVP LabWorks software (Waltham, MA).
Figure 2 Effects of PKCδ inhibitors on human cancer stem cells. (A) PCSC and PrCSC cells at 80% confluence were exposed to rottlerin. DMSO served as vehicle control (Vehicle). After 24 and 72 hr of exposure, cell mass was evaluated by MTT assay. Control values were normalized to 100%. p values for comparison between treatments reached significance at 24 hr of exposure (p≤0.01) for both cell types, and remained significant at 72 hr. […] Cytotoxicity was evaluated by LDH-release assay. […] Viable cells were enumerated and re-plated in media without inhibitor, and colony numbers were quantitated 15 days later. p values for comparison of treatment effects on clonogenic capacity reached significance (p=0.005) at 18 hr of exposure and remained significant for all subsequent exposure times. […]

[7] = mice; cited from earlier work

Structure (SMILES) | increase in potency compared to rottlerin, LDH release (PCSC cells; data not shown) | hydrophobicity [1] | concentrations producing cytotoxic activity against cells with aberrant Ras signaling [2] | cytostatic or cytotoxic effect on normal primary cells or cell lines [3] | survival / tumor-free status after treatment ([4]; monitoring continued after cessation) | effect on growth of BCSC xenografts ([4]; nude (J:NU) mice, vs vehicle) | effect on proliferation of PrCSC (PrCSC cells [5]) | cytotoxicity in PrCSC (LDH release) (PrCSC cells [6]) | decrease of clonogenic capacity of PCSC (PCSC; 18 hr exposure then washout) | reduction of clonogenic potential of PCSC (PCSC; 48 hr exposure then washout) | tolerability when administered orally or intraperitoneally [7] | cytotoxicity in PCSC (LDH release) (PCSC cells; dose-dependent, 24 and 72 hr)
CC1(C)C=Cc2cc(CCn3c4ccccc4c4ccccc43)cc(C=O)c2O1 [BJE6-106, 6-(2-(9H-carbazol-9-yl)ethyl)-2,2-dimethyl-2H-chromene-8-carbaldehyde] | greater than 10 fold | highly hydrophobic | nM concentrations |  |  |  |  |  |  |  |  | 
CC(=O)c1c(O)c(C)c(O)c(Cc2c(O)c3c(c(C(=O)/C=C/c4ccccc4)c2O)OC(C)(C)C=C3)c1O [rottlerin, Rottlerin, reference compound] |  |  |  | not cytostatic or cytotoxic | some animals remaining tumor-free even at day 300 | effectively inhibited the growth of the xenografts, even producing tumor regression | significant dose-dependent inhibition of proliferation | induced cytotoxicity | 40% | more than 90% | well-tolerated | induced cytotoxicity
